# From patent publication US20240307426A1, “USE OF SGLT-2 INHIBITORS FOR THE PREVENTION AND/OR TREATMENT OF RENAL DISEASES IN NON-HUMAN MAMMALS” (BOEHRINGER INGELHEIM VETMEDICA GMBH, priority 2021, published 2024)
# Tested on: cats with chronic kidney disease (CKD)
# Experiment: Exploratory clinical field trial in cats with CKD (Example 3)
# Assay type: in vivo, cat
# Set-up: key to IRIS Stage (based on serum creatinine level) / IRIS Stage (based on creatinine level) / IRIS Stage (based on the creatinine level): IRIS CKD stage assigned from serum creatinine (IRIS 2019)
# Conditions: for Phosphorus: ref 0.8-2.2; for Serum creatinine: ref 0.9-2.3; for Potassium: ref 3.3-5.8; for UPC: ref <0.33
# Experimental: The clinical trial was conducted at three animal clinics. Overall, 9 cats with chronic kidney disease (CKD) were included in the study and treated once daily orally with 1 mg/kg bodyweight velagliflozin for up to 150 days (depending on the time of enrollment).
# Diagnosis of CKD was based on two measurements of serum creatinine concentration at least 2 weeks apart from each other (historical value and screening, and value at screening in fasted cats), as recommended by the International Renal Interest Society (IRIS 2019). In order to qualify for enrollment, serum creatinine levels needed to be ≥2.2 mg/dL, but <5.0 mg/dL.
# Disease staging throughout the study was performed based on serum creatinine levels in accordance with the IRIS CKD staging (IRIS 2019).
# All other cats were treated for >90 days had at least data for two time points under treatment available and were therefore evaluated. Progression of the disease, as well as IRIS staging in this study was based on the most reliable biomarker: serum creatinine.
# [1] = case 200-001, 1 mg/kg po once daily
# [2] = case 200-001, 1 mg/kg po once daily, whole study
# [3] = case 200-001, Visit 1 (Day 30), 1 mg/kg po once daily
# [4] = case 200-001, Visit 2 (Day 90), 1 mg/kg po once daily
# [5] = case 200-001, Visit 3 (Day 111), 1 mg/kg po once daily
# [6] = case 200-001, screening visit (before treatment)
# [7] = case 200-003 (IRIS stage 3), removed early on day 30
# [8] = case 200-004, 1 mg/kg po once daily, whole study
# [9] = case 200-004, Visit 1 (Day 30), 1 mg/kg po once daily
# [10] = case 200-004, Visit 2 (Day 90), 1 mg/kg po once daily
# [11] = case 200-004, Visit 3 (Day 143), 1 mg/kg po once daily
# [12] = case 200-004, screening visit (before treatment)
# [13] = case 200-005, 1 mg/kg po once daily
# [14] = case 200-005, 1 mg/kg po once daily, whole study
# [15] = case 200-005, Visit 1 (Day 30), 1 mg/kg po once daily
# [16] = case 200-005, Visit 2 (Day 90), 1 mg/kg po once daily
# [17] = case 200-005, Visit 3 (Day 128), 1 mg/kg po once daily
# [18] = case 200-005, screening visit (before treatment)
# [19] = case 200-006, 1 mg/kg po once daily
# [20] = case 200-006, 1 mg/kg po once daily, whole study
# [21] = case 200-006, Visit 1 (Day 30), 1 mg/kg po once daily
# [22] = case 200-006, Visit 2 (Day 90), 1 mg/kg po once daily
smiles,measurement,setting,value
"N#Cc1ccc([C@@H]2O[C@H](CO)[C@@H](O)[C@H](O)[C@H]2O)cc1Cc1ccc(C2CC2)cc1 [velagliflozin, Velagliflozin]",decrease in serum creatinine within the observation period,"3 of the seven evaluated cats, 1 mg/kg po once daily",≥ 10%
same,renal parameters and clinical signs,"IRIS stage 2 and 3 CKD cats, 1 mg/kg orally once daily",stabilized or even improved
same,expected glucosuric effect,all cats except cat 200-004 (no data recorded),confirmed
same,Hematocrit,all cats under oral treatment with 1 mg/kg bodyweight,remained within the reference range
same,Systolic blood pressure,"all cats, during the course of the study",< 160 mmHg
same,serum phosphate levels,"all evaluated cases, except one measurement for case 200-001 on day 90",remained within the laboratories reference range throughout the study
same,Proteinuria (UPC),"all patients, 1 mg/kg po once daily",≤ 0.33
same,Serum potassium levels,"all treated cats, 1 mg/kg po once daily",stayed within the reference range
same,adverse events,[1],Two adverse events were reported for this patient: pectin responsive diarrhea for one day and pancreatitis
same,expected glucosuric effect,[1],confirmed
same,Quality of life according to the owner (course),[2],remained very good
same,Serum potassium levels (course),[2],decreased within the reference range
same,UPC (course),[2],improved from 0.4 to 0.2
same,appetite and drinking behavior (course),[2],remained normal
same,condition (clinical signs and biochemical parameters),[2],stabilization of the condition
same,course of BUN,[2],remained stable
same,course of serum creatinine,[2],remained stable with one single measurement on Day 90 being increased
same,total urine protein,[2],reduced
same,BUN,[3],38 mg/dL
same,IRIS Stage (based on the creatinine level),[3],2
same,Owner assessment - quality of life,[3],very good
same,Owner assessment of the appetite,[3],normal
same,Owner assessment of the drinking behavior,[3],normal
same,Systolic blood pressure,[3],126.7 mmHg
same,Phosphorus,[3],1.3 mmol/L
same,Serum creatinine,[3],2.6 mg/dL
same,Potassium,[3],4.6 mmol/L
same,Hematocrit,"case 200-001, Visit 1 (Day 30), 1 mg/kg po once daily, ref 28.2-52.7",38.5%
same,BUN,[4],47 mg/dL
same,IRIS Stage (based on the creatinine level),[4],3
same,Owner assessment - quality of life,[4],very good
same,Owner assessment of the appetite,[4],normal
same,Owner assessment of the drinking behavior,[4],normal
same,Systolic blood pressure,[4],122.7 mmHg
same,Phosphorus,[4],2.4 mmol/L
same,Serum creatinine,[4],3.2 mg/dL
same,Potassium,[4],4.3 mmol/L
same,Hematocrit,"case 200-001, Visit 2 (Day 90), 1 mg/kg po once daily, ref 28.2-52.7",34.6%
same,UPC,[4],0.2
same,BUN,[5],41 mg/dL
same,IRIS Stage (based on the creatinine level),[5],2
same,Owner assessment - quality of life,[5],very good
same,Owner assessment of the appetite,[5],normal
same,Owner assessment of the drinking behavior,[5],normal
same,Systolic blood pressure,[5],131.3 mmHg
same,Phosphorus,[5],1.6 mmol/L
same,Serum creatinine,[5],2.6 mg/dL
same,Potassium,[5],4.3 mmol/L
same,Hematocrit,"case 200-001, Visit 3 (Day 111), 1 mg/kg po once daily, ref 28.2-52.7",32.6%
same,BUN,[6],39 mg/dL
same,IRIS Stage (based on the creatinine level),[6],2
same,Owner assessment - quality of life,[6],very good
same,Owner assessment of the appetite,[6],normal
same,Owner assessment of the drinking behavior,[6],normal
same,Systolic blood pressure,[6],152.0 mmHg
same,Phosphorus,[6],1.4 mmol/L
same,Serum creatinine,[6],2.6 mg/dL
same,Potassium,[6],5.2 mmol/L
same,Hematocrit,"case 200-001, screening visit (before treatment), ref 28.2-52.7",37.4%
same,UPC,[6],0.4
same,appetite and drinking behavior,[7],improving to normal
same,laboratory parameters,[7],worsening of a single measurement of laboratory parameters
same,quality of life,[7],good quality of life
same,adverse events,"case 200-004, 1 mg/kg po once daily",No adverse event was reported
same,Quality of life according to the owner (course),[8],remained very good
same,appetite and drinking behavior (course),[8],remained normal
same,change of IRIS stage of the disease,[8],from 3 to 2
same,condition (biochemical parameters),[8],improvement of the condition
same,course of serum creatinine,[8],decreased by a clinically relevant amount
same,BUN,[9],42 mg/dL
same,IRIS Stage (based on serum creatinine level),[9],2
same,Owner assessment - quality of life,[9],very good
same,Owner assessment of the appetite,[9],normal
same,Owner assessment of the drinking behavior,[9],normal
same,Systolic blood pressure,[9],148.0 mmHg
same,Phosphorus,[9],1.3 mmol/L
same,Serum creatinine,[9],2.7 mg/dL
same,Potassium,[9],4.5 mmol/L
same,Hematocrit,"case 200-004, Visit 1 (Day 30), 1 mg/kg po once daily, ref 28.2-52.7",37.0%
same,BUN,[10],36 mg/dL
same,IRIS Stage (based on serum creatinine level),[10],2
same,Owner assessment - quality of life,[10],very good
same,Owner assessment of the appetite,[10],normal
same,Owner assessment of the drinking behavior,[10],normal
same,Systolic blood pressure,[10],129.3 mmHg
same,Phosphorus,[10],1.3 mmol/L
same,Serum creatinine,[10],2.5 mg/dL
same,Potassium,[10],4.9 mmol/L
same,Hematocrit,"case 200-004, Visit 2 (Day 90), 1 mg/kg po once daily, ref 28.2-52.7",32.9%
same,BUN,[11],38 mg/dL
same,IRIS Stage (based on serum creatinine level),[11],2
same,Owner assessment - quality of life,[11],very good
same,Owner assessment of the appetite,[11],normal
same,Owner assessment of the drinking behavior,[11],normal
same,Systolic blood pressure,[11],148.7 mmHg
same,Phosphorus,[11],1.2 mmol/L
same,Serum creatinine,[11],2.6 mg/dL
same,Potassium,[11],4.9 mmol/L
same,Hematocrit,"case 200-004, Visit 3 (Day 143), 1 mg/kg po once daily, ref 28.2-52.7",34.8%
same,BUN,[12],46 mg/dL
same,IRIS Stage (based on serum creatinine level),[12],3
same,Owner assessment - quality of life,[12],very good
same,Owner assessment of the appetite,[12],normal
same,Owner assessment of the drinking behavior,[12],normal
same,Systolic blood pressure,[12],130.7 mmHg
same,Phosphorus,[12],1.2 mmol/L
same,Serum creatinine,[12],2.9 mg/dL
same,Potassium,[12],4.9 mmol/L
same,Hematocrit,"case 200-004, screening visit (before treatment), ref 28.2-52.7",33.4%
same,UPC,[12],0.1
same,Quality of life according to the owner,[13],good
same,adverse events,[13],No adverse event was reported
same,expected glucosuric effect,[13],confirmed
same,Serum potassium levels (course),[14],remained stable
same,UPC ratio (remained at),[14],0.1
same,appetite and drinking behavior (course),[14],remained normal
same,condition (clinical signs and biochemical parameters),[14],stabilization of the condition
same,course of BUN,[14],remained stable
same,course of serum creatinine,[14],decreased
same,total urine protein,[14],reduced
same,BUN,[15],37 mg/dL
same,IRIS Stage (based on the creatinine level),[15],2
same,Owner assessment - quality of life,[15],very good
same,Owner assessment of the appetite,[15],normal
same,Owner assessment of the drinking behavior,[15],normal
same,Systolic blood pressure,[15],148.0 mmHg
same,Phosphorus,[15],1.0 mmol/L
same,Serum creatinine,[15],2.0 mg/dL
same,Potassium,[15],4.0 mmol/L
same,Hematocrit,"case 200-005, Visit 1 (Day 30), 1 mg/kg po once daily, ref 28.2-52.7",45.1%
same,BUN,[16],32 mg/dL
same,IRIS Stage (based on the creatinine level),[16],2
same,Owner assessment - quality of life,[16],good
same,Owner assessment of the appetite,[16],normal
same,Owner assessment of the drinking behavior,[16],normal
same,Systolic blood pressure,[16],130.0 mmHg
same,Phosphorus,[16],1.3 mmol/L
same,Serum creatinine,[16],1.9 mg/dL
same,Potassium,[16],3.9 mmol/L
same,Hematocrit,"case 200-005, Visit 2 (Day 90), 1 mg/kg po once daily, ref 28.2-52.7",39.2%
same,UPC,[16],0.1
same,BUN,[17],37 mg/dL
same,IRIS Stage (based on the creatinine level),[17],2
same,Owner assessment - quality of life,[17],good
same,Owner assessment of the appetite,[17],normal
same,Owner assessment of the drinking behavior,[17],normal
same,Systolic blood pressure,[17],123.3 mmHg
same,Phosphorus,[17],1.1 mmol/L
same,Serum creatinine,[17],1.9 mg/dL
same,Potassium,[17],4.0 mmol/L
same,Hematocrit,"case 200-005, Visit 3 (Day 128), 1 mg/kg po once daily, ref 28.2-52.7",40.4%
same,BUN,[18],37 mg/dL
same,IRIS Stage (based on the creatinine level),[18],2
same,Owner assessment - quality of life,[18],very good
same,Owner assessment of the appetite,[18],normal
same,Owner assessment of the drinking behavior,[18],normal
same,Systolic blood pressure,[18],139.3 mmHg
same,Serum creatinine,[18],2.2 mg/dL
same,Potassium,[18],4.9 mmol/L
same,Hematocrit,"case 200-005, screening visit (before treatment), ref 28.2-52.7",42.3%
same,UPC,[18],0.1
same,adverse events,[19],"Three adverse events were reported: diarrhoea, vomitus as well as cystitis"
same,expected glucosuric effect,[19],confirmed
same,Quality of life according to the owner (course),[20],remained good
same,Serum creatinine and BUN (course),[20],remained stable
same,Serum potassium levels (course),[20],remained within the reference range
same,Total urine protein and UPC,[20],remained within the reference range
same,appetite (course),[20],improved to normal
same,condition (clinical signs and biochemical parameters),[20],stable condition
same,drinking behavior (course),"case 200-006, 1 mg/kg po once daily, whole study, worsening potentially due to cystitis",improved to normal but worsened again to excessive
same,BUN,[21],41 mg/dL
same,IRIS Stage (based on the creatinine level),[21],2
same,Owner assessment - quality of life,[21],good
same,Owner assessment of the appetite,[21],normal
same,Owner assessment of the drinking behavior,[21],normal
same,Systolic blood pressure,[21],139.3 mmHg
same,Phosphorus,[21],1.9 mmol/L
same,Serum creatinine,[21],2.7 mg/dL
same,Potassium,[21],3.9 mmol/L
same,Hematocrit,"case 200-006, Visit 1 (Day 30), 1 mg/kg po once daily, ref 28.2-52.7",38.1%
same,BUN,[22],30 mg/dL
same,IRIS Stage (based on the creatinine level),[22],2
same,Owner assessment - quality of life,[22],good
same,Owner assessment of the appetite,[22],normal
same,Owner assessment of the drinking behavior,[22],excessive
